Data published in patent publication US12227488B2, “Small molecule degraders of Helios and methods of use” (DANA-FARBER CANCER INSTITUTE, INC., priority 2018, dated 2025).

Key:
CRBN and Helios (IKZF2) = target: T1, CRBN and Helios (IKZF2) (Homo sapiens, UniProt Q96SW2+Q9UKS7); assay: TR-FRET dimerization assay (CRBN-IKZF2 ternary complex formation); assay type: binding; conditions: n=1
T1 construct: His (N); Strep (N)
Protocol: A focused library of imide analogs was synthesized and assessed for their ability to induce dimerization between CRBN and Helios in a time-resolved fluorescence energy transfer (TR-FRET) assay (FIG. 1A).
Prior to TR-FRET measurements being conducted, the reactions were incubated for 15 min at rt. […] The TR-FRET signal of each data point was extracted by calculating the 520/490 nm ratios. Data from single measurements (n=1), each calculated as an average of at least three technical replicates per well per experiment are presented in Table 1.
BODIPY-labeled CRBN in complex with Damage Specific DNA Binding Protein 1 (DDB1) harboring an internal deletion of the flexible BPB propeller (DDB1AB-CRBN) and in vitro biotinylated IKZF2 were treated with increasing concentrations of the indicated compounds in the presence of tracer amounts of Terbium-Streptavidin (Tb-SA). Compound-induced recruitment of IKZF2 to CRBN was quantified following the 520/490 TR-FRET ratio using a PHERAstar® plate reader (BMG) utilizing two synchronized PMTs to reduce background.

IKZF2 = assay: Cellular degradation assay, eGFP-IKZF2Δ fusion with mCherry reporter in Flp-In 293 cells; assay type: cell-based; conditions: for IKZF2 GFP/RFP Relative Abundance: 5 h incubation, n=1
Protocol: (§1) IKZF1Δ, IKZF2Δ, GSPT1 and SALL4 ZnF1-2 were subcloned into mammalian pcDNA5/FRT Vector (Ampicillin and Hygromycin B resistant) modified to contain MCS-eGFP-P2A-mCherry. […] Following 2-3 passage cycle, FACS (FACSAria™ II, BD) was used to enrich for cells expressing eGFP and mCherry. Cells stably expressing the IKZF1Δ, IKZF2Δ, GSPT1 or SALL4 Znf1-2 GFP fusions with mCherry reporter were seeded at 30-50% confluency in 384-well plates with 50 μL FluoroBrite™ DMEM media (Thermo Fisher Scientific, A18967) containing 10% FBS per well a day before compound treatment. Compound titrations were dispensed using a D300e Digital Dispenser (HP), normalized to 0.5% DMSO, and incubated with cells for 5 hours.
(§2) The resulting images were analyzed using CellProfiler™. A series of image analysis steps (‘image analysis pipeline’) was constructed. First, the red and green channels were aligned and cropped to target the middle of each well (to avoid analysis of heavily clumped cells at the edges), and a background illumination function was calculated for both red and green channels of each well individually and subtracted to correct for illumination variations across the 384-well plate from various sources of error. An additional step was then applied to the green channel to suppress the analysis of large auto fluorescent artifacts and enhance the analysis of cell specific fluorescence by way of selecting for objects under a given size, 30 A.U., and with a given shape, speckles. mCherry-positive cells were then identified in the red channel filtering for objects between 8-60 pixels in diameter and using intensity to distinguish between clumped objects. The green channel was then segmented into GFP positive and negative areas and objects were labeled as GFP positive if at least 40% of it overlapped with a GFP positive area. The fraction of GFP-positive cells/mCherry-positive cells in each well was then calculated, and the green and red images were rescaled for visualization.
(§3) The degradation assay was performed as described above. […] Degradation was measured after 5 h of compound treatment and the concentrations that lead to half degradation at 5 h (DC50,5 h) were calculated using the nonlinear fit variable slope model (GraphPad Software).

IKZF1 = target: T2, IKZF1 (Homo sapiens, UniProt Q13422); assay: Cellular degradation assay, eGFP-IKZF1Δ fusion with mCherry reporter in Flp-In 293 cells; assay type: cell-based; conditions: for IKZF1 GFP/RFP Relative Abundance: 5 h incubation, n=1
T2 construct: expressed in transfected cells; host or cells: Flp-In 293
T2 sequence (Q13422 83-213 isoform Q13422-7 limits assumed): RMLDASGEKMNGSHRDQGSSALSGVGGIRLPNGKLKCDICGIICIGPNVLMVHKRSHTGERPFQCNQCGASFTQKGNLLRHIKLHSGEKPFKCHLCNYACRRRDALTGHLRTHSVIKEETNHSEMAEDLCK
T2 sequence (Q96SW2 whole entry partner, the tested form may be a part): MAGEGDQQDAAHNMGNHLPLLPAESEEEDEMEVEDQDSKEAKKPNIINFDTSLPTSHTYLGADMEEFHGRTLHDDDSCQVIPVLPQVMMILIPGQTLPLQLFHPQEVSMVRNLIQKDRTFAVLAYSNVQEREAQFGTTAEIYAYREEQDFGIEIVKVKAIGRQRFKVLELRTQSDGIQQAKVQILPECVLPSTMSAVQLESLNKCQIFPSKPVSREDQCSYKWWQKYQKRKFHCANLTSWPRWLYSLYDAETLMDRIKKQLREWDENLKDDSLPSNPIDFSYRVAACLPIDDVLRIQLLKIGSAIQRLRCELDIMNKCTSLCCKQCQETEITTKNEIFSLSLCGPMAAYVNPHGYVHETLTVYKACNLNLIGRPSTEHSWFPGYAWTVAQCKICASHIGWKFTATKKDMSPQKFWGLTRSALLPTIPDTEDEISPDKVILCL
T2 sequence (Q16531 2-1140 partner limits assumed): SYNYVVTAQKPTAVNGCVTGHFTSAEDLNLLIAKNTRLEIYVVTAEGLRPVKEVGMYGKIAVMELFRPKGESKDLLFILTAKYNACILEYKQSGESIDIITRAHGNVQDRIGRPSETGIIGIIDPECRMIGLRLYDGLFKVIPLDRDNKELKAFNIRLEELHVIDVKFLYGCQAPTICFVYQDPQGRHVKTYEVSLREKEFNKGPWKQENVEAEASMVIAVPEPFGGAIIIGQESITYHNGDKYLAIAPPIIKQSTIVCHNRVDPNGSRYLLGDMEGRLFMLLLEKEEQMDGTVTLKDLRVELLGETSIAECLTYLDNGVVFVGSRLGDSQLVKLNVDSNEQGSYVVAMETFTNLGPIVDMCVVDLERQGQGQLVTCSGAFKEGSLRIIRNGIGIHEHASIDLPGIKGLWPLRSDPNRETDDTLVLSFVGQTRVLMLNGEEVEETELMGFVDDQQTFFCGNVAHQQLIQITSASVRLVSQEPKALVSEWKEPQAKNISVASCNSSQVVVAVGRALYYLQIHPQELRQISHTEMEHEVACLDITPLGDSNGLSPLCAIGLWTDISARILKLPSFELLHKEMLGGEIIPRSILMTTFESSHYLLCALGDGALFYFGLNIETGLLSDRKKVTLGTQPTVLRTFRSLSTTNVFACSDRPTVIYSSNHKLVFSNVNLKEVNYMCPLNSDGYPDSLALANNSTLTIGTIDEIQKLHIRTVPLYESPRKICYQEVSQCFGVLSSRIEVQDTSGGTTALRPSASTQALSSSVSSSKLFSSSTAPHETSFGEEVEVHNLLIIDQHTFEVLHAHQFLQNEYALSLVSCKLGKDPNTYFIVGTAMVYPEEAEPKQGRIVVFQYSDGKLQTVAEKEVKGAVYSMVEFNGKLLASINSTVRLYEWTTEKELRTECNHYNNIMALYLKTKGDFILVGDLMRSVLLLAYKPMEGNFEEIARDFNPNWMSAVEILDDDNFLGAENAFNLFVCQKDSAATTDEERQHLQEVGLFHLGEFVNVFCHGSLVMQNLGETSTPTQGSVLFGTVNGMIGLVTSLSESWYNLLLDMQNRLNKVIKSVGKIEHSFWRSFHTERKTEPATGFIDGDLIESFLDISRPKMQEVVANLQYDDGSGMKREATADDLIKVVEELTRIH
Protocol: as §1, §2, §3

GSPT1 = GSPT1 (Homo sapiens, UniProt P15170+Q96SW2); assay: Cellular degradation assay, eGFP-GSPT1 fusion with mCherry reporter in Flp-In 293 cells; assay type: cell-based; set-up: expressed in transfected cells; host or cells: Flp-In 293; conditions: half degradation at 5 h (DC50,5 h); triplicate, 11 point dose response
Chain of GSPT1 (P15170 whole entry, the tested form may be a part): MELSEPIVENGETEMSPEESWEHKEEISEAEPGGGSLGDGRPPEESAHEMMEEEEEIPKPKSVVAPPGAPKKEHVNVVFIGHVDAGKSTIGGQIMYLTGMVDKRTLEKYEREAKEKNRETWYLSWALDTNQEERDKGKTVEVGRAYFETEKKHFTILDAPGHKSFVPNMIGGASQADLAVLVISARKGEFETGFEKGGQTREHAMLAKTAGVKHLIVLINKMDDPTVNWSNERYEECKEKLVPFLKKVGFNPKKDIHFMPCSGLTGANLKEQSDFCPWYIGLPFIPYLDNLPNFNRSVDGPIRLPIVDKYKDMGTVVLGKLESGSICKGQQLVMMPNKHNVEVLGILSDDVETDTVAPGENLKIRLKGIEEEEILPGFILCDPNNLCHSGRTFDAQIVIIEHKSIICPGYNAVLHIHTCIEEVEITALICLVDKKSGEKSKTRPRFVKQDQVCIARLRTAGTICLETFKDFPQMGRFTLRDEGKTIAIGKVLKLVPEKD
Chain of GSPT1 (Q96SW2 whole entry, the tested form may be a part): as the sequence (Q96SW2 whole entry partner, the tested form may be a part) above
Chain of GSPT1 (Q16531 whole entry partner, the tested form may be a part): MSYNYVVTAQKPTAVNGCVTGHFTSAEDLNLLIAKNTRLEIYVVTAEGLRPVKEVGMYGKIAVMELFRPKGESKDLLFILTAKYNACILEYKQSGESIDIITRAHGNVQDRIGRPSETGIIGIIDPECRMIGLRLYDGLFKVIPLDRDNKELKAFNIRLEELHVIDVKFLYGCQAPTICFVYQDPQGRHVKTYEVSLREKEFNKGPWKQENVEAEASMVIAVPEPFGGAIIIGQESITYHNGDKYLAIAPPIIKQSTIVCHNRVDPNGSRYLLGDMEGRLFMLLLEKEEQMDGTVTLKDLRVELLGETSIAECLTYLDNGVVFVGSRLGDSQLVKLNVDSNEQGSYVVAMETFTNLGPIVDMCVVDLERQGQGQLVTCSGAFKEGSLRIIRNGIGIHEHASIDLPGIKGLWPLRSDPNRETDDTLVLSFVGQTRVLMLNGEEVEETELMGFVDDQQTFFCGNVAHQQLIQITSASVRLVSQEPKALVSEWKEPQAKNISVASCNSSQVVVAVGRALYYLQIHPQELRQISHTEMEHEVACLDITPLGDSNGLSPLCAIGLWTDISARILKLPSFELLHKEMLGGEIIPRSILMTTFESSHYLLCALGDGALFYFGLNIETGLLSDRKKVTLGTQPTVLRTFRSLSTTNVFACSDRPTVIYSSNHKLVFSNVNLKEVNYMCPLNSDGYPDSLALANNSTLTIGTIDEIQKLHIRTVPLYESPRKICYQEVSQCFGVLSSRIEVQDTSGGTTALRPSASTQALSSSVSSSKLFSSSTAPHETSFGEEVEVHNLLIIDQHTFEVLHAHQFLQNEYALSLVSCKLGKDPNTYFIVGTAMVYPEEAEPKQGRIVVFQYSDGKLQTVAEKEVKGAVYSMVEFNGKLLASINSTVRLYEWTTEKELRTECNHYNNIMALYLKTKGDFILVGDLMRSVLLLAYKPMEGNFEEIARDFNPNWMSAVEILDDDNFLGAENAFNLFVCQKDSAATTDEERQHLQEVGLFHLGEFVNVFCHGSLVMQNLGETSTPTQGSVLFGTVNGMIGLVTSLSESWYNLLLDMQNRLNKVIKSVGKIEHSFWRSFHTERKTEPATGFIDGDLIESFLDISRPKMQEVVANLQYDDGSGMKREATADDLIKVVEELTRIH
Protocol: as §1, §2, §3

[1] = compound concentration 6.6667E−05
[2] = compound concentration 6.6667E−06
[3] = compound concentration 6.6667E−07 (667 nM)
[4] = compound concentration 2.00E−05
[5] = compound concentration 2.00E−06
[6] = compound concentration 2.00E−07
[7] = half degradation at 5 h (DC50,5 h), triplicate, 11 point dose response

T1 sequence (Q96SW2 whole entry): as the sequence (Q96SW2 whole entry partner, the tested form may be a part) above
T1 sequence (Q9UKS7 whole entry): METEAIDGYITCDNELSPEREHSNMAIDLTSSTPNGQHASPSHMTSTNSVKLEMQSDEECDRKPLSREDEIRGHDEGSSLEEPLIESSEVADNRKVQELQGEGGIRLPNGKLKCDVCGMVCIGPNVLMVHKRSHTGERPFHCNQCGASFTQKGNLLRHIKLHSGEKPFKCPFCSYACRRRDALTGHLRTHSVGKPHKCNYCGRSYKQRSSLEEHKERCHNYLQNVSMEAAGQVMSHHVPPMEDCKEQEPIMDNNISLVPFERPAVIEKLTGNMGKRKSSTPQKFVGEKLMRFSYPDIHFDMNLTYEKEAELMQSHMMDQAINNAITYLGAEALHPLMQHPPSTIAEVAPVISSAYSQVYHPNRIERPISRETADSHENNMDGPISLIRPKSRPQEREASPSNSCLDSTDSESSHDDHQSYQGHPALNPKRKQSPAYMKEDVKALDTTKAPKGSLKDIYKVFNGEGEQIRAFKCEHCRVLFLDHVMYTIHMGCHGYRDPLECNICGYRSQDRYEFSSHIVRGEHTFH

Structure (SMILES) | TR-FRET-IKZF2 (Normalized to CC-885) (CRBN and Helios (IKZF2); [1]) | TR-FRET-IKZF2 (Normalized to CC-885) (CRBN and Helios (IKZF2); [2]) | TR-FRET-IKZF2 (Normalized to CC-885) (CRBN and Helios (IKZF2); [3]) | IKZF2 GFP/RFP Relative Abundance (IKZF2; [4]) | IKZF2 GFP/RFP Relative Abundance (IKZF2; [5]) | IKZF2 GFP/RFP Relative Abundance (IKZF2; [6]) | IKZF1 GFP/RFP Relative Abundance (IKZF1; [4]) | IKZF1 GFP/RFP Relative Abundance (IKZF1; [5]) | IKZF1 GFP/RFP Relative Abundance (IKZF1; [6]) | DC50 (GSPT1) | DC50 (IKZF2; [7]) | potency of IKZF1 degradation, in words (IKZF1; Table 3 summary) | DC50 (IKZF1; [7])
Cc1ccc(CNC(=O)c2cccc(NC3=CC(=O)N(C4CCC(=O)NC4=O)C3=O)c2)cc1Cl (stereo not shown) [Compound 122, N-(3-chloro-4-methylbenzyl)-3-((1-(2,6-dioxopiperidin-3-yl)-2,5-dioxo-2,5-dihydro-1H-pyrrol-3-yl)amino)benzamide] | 0.715 | 0.628 | 0.469 | 0.738 | 0.789 | 0.833 | 0.076 | 0.088 | 0.096 | – | – | – | –
Cc1ccc(CNC(=O)Cc2cccc(NC3=CC(=O)N(C4CCC(=O)NC4=O)C3=O)c2)cc1Cl (stereo not shown) [Compound 123, N-(3-chloro-4-methylbenzyl)-2-(3-((1-(2,6-dioxopiperidin-3-yl)-2,5-dioxo-2,5-dihydro-1H-pyrrol-3-yl)amino)phenyl)acetamide] | 1.234 | 1.087 | 0.960 | 0.065 | 0.093 | 0.078 | 0.083 | 0.057 | 0.092 | – | – | – | –
Cc1ccc(NC(=O)Nc2cccc3c(NC4=CC(=O)N(C5CCC(=O)NC5=O)C4=O)cccc23)cc1Cl (stereo not shown) [Compound 124, 1-(3-chloro-4-methylphenyl)-3-(5-((1-(2,6-dioxopiperidin-3-yl)-2,5-dioxo-2,5-dihydro-1H-pyrrol-3-yl)amino)naphthalen-1-yl)urea] | 0.159 | 0.130 | 0.077 | 0.829 | 1.015 | 0.985 | 0.689 | 0.978 | 1.005 | – | – | – | –
Cc1ccc(NC(=O)COc2cccc(NC3=CC(=O)N(C4CCC(=O)NC4=O)C3=O)c2)cc1Cl (stereo not shown) [Compound 125, N-(3-chloro-4-methylphenyl)-2-(3-((1-(2,6-dioxopiperidin-3-yl)-2,5-dioxo-2,5-dihydro-1H-pyrrol-3-yl)amino)phenoxy)acetamide] | – | – | – | – | – | – | – | – | – | > 1000 nM | 24 nM | most potent against IKZF1 | 1.7 nM
Cc1ccc(NC(=O)NCCc2cccc(NC3=CC(=O)N(C4CCC(=O)NC4=O)C3=O)c2)cc1C(F)(F)F (stereo not shown) [Compound 126, 1-(3-((1-(2,6-dioxopiperidin-3-yl)-2,5-dioxo-2,5-dihydro-1H-pyrrol-3-yl)amino)phenethyl)-3-(4-methyl-3-(trifluoromethyl)phenyl)urea] | 1.762 | 1.603 | 1.420 | 0.059 | 0.033 | 0.047 | 0.177 | 0.072 | 0.100 | – | – | – | –
Cc1ccc(N(C)C(=O)CCc2cccc(NC3=CC(=O)N(C4CCC(=O)NC4=O)C3=O)c2)cc1Cl (stereo not shown) [Compound 127, N-(3-chloro-4-methylphenyl)-3-(3-((1-(2,6-dioxopiperidin-3-yl)-2,5-dioxo-2,5-dihydro-1H-pyrrol-3-yl)amino)phenyl)-N-methylpropanamide] | 1.390 | 1.362 | 1.195 | 0.266 | 0.047 | 0.060 | 0.313 | 0.079 | 0.079 | – | – | – | –
